{"source": "patent US20140127827A1", "about": "“METHOD FOR DETECTION OF ANTIGEN USING FLUORESCENCE RESONANCE ENERGY TRANSFER IMMUNOASSAY” (priority 2012, published 2014)", "format_in_all_cases": "binding", "key": {"anti-AFB1 antibody": {"system": "anti-AFB1 antibody", "settings": "pH 6"}, "anti-AFB1 Fab": {"system": "anti-AFB1 Fab", "experiment": "FRET immunoassay using Fab fragment (anti-AFB1 Fab), incl. specificity to OTA", "method": "Under the condition of 25 mM MEST buffer solution (pH 6.0), AFB1 of various concentrations (0, 0.1, 0.2, 0.5, 1, 2, 10, 20, 50 and 100 ng/mL) was reacted with anti-AFB1 Fab fragments having a constant concentration at room temperature for 20 minutes to obtain AFB1/anti-AFB1 Fab conjugates. The obtained AFB1/anti-AFB1 Fab conjugates were excited at 280 nm to obtain fluorescence spectra (FIG. 7). Referring to FIG. 7, it can be seen that, as the concentration of AFB1 increases, the fluorescence intensity at a wavelength of 350 nm decreases. Particularly, it can also be seen that sensitivity of FRET immunoassay using Fab fragments was much better than that of FRET immunoassay using an intact antibody of Example 1 (FIG. 8). Further, as a result of analysis by lowering the concentration of AFB1, it can be seen that approximately up to 0.09 ng/mL of AFB1 could be detected through FRET immunoassay using Fab fragments. This corresponds to a near 10-fold improvement in terms of sensitivity as compared to FRET immunoassay where an intact antibody of Example 1 was used. […]"}, "anti-BaP": {"system": "anti-BaP", "experiment": "FRET immunoassay for benzopyrene using antibodies (BaP/anti-BaP conjugate), incl. specificity to pyrene and DBA", "settings": "same concentration as BaP (5 and 20 ng/mL), 10 mM NaHCO3 pH 9.0", "method": "Under the condition of 10 mM NaHCO3 buffer solution (pH 9.0), BaPs having various concentrations (0, 0.1, 0.2, 0.5, 1, 2, 5, 10, 20 and 50 ng/mL) were reacted with antibodies having constant concentration at room temperature for 20 minutes to obtain BaP/anti-BaP conjugates. The obtained BaP/anti-BaP conjugates were excited at 280 nm to obtain a fluorescence spectrum (FIG. 18). Referring to FIGS. 18 and 19, it can be seen that, as the concentration of BaP increases, fluorescence intensity at a wavelength of 350 nm decreases, while fluorescence intensity at 435 nm increases at the same time.\nUnder the condition of 10 mM NaHCO3 buffer solution (pH 9.0), specificity of mouse IgG antibody (anti-Mouse IgG) to 5 ng/mL and 20 ng/mL BaP was investigated using FRET immunoassay. […] Further, specificity of anti-BaP to pyrene and dibenz[a,h]anthracene (DBA) having the same concentration as BaP was investigated."}, "anti-NPT": {"system": "anti-NPT", "experiment": "FRET immunoassay for neopterin using antibodies (NPT/anti-NPT conjugate), incl. specificity to BPT", "settings": "10 mM NaHCO3 pH 9.0", "method": "Under the condition of 10 mM NaHCO3 buffer solution (pH 9.0), NPT of various concentrations (0 ng/mL, 0.2 ng/mL, 2 ng/mL and 20 ng/mL) was reacted with antibodies having a constant concentration at room temperature for 20 minutes to obtain NPT/anti-NPT conjugates. The obtained NPT/anti-NPT conjugates were excited at 280 nm to obtain fluorescence spectra (FIG. 14). Referring to FIG. 14, it can be seen that, as the concentration of NPT increases, the fluorescence intensity at a wavelength of 350 nm decreases.\nUnder the condition of 10 mM NaHCO3 buffer solution (pH 9.0), specificity of mouse IgG antibody (anti-Mouse IgG), IFN-γ antibody (anti-IFN-γ) and CRP antibody (anti-CRP) to 2 ng/mL and 20 ng/mL of NPT was investigated using FRET immunoassay. […] Further, specificity of anti-NPT with BPT having the same concentration as NPT was investigated."}, "anti-OTA antibody": {"system": "anti-OTA antibody", "experiment": "FRET immunoassay using an intact antibody (OTA/anti-OTA conjugate)", "settings": "0, 10, 100 ng/mL; 25 mM MEST pH 6.0; excitation 280 nm", "method": "(§1) Using 25 mM MEST buffer solution (containing 0.3% Tween 20 in MES buffer solution, pH 6.0), mycotoxins of various concentrations (0 ng/mL, 10 ng/mL and 100 ng/mL) were reacted with antibodies having a constant concentration at room temperature for 20 minutes to obtain mycotoxin/antibody conjugates (AFB1/anti-AFB1 conjugate, OTA/anti-OTA conjugate, and ZEN/anti-ZEN conjugate). The obtained mycotoxin/antibody conjugates were excited at 280 nm to obtain fluorescence spectra (FIG. 4). Referring to FIG. 4, it can be seen that, as the concentration of mycotoxins (AFB1, OTA and ZEN) increases, the fluorescence intensity at a wavelength of 350 nm decreases."}, "anti-ZEN antibody": {"system": "anti-ZEN antibody", "experiment": "FRET immunoassay using an intact antibody (ZEN/anti-ZEN conjugate)", "settings": "0, 10, 100 ng/mL; 25 mM MEST pH 6.0; excitation 280 nm", "method": "as §1"}}, "data": [{"compound": "COc1cc2c(c3oc(=O)c4c(c13)CCC4=O)[C@@H]1C=CO[C@@H]1O2", "note": "[AFB1, aflatoxin]", "values": [{"measurement": "fluorescence intensity at 350 nm as concentration increases", "setting": "anti-AFB1 antibody", "result": "decreases"}, {"measurement": "fluorescence intensity at 350 nm as concentration increases", "setting": "anti-AFB1 Fab; pH 6", "result": "decreases"}]}, {"compound": "c1ccc2c(c1)ccc1cc3c(ccc4ccccc43)cc12", "note": "[DBA, dibenz[a,h]anthracene]", "values": [{"measurement": "binding to anti-BaP (specificity)", "setting": "anti-BaP", "result": "a little antigen/antibody binding"}]}, {"compound": "Nc1nc2ncc([C@H](O)[C@H](O)CO)nc2c(=O)[nH]1", "note": "[NPT, neopterin]", "values": [{"measurement": "fluorescence intensity at 350 nm as concentration increases", "setting": "anti-NPT; 0, 0.2, 2, 20 ng/mL NPT, excitation 280 nm", "result": "decreases"}]}, {"compound": "C[C@@H]1Cc2c(Cl)cc(C(=O)N[C@@H](Cc3ccccc3)C(=O)O)c(O)c2C(=O)O1", "note": "[OTA, ochratoxin A]", "values": [{"measurement": "fluorescence intensity at 350 nm as concentration increases", "setting": "anti-OTA antibody", "result": "decreases"}, {"measurement": "binding to anti-AFB1 Fab (specificity)", "setting": "anti-AFB1 Fab; OTA at same concentration as AFB1 (10 and 50 ng/mL), MEST buffer pH 6.0", "result": "no antigen/antibody binding"}]}, {"compound": "C[C@H]1CCCC(=O)CCC/C=C/c2cc(O)cc(O)c2C(=O)O1", "note": "[ZEN, zearalenone]", "values": [{"measurement": "fluorescence intensity at 350 nm as concentration increases", "setting": "anti-ZEN antibody", "result": "decreases"}]}, {"compound": "c1cc2ccc3cccc4ccc(c1)c2c34", "note": "[pyrene]", "values": [{"measurement": "binding to anti-BaP (specificity)", "setting": "anti-BaP", "result": "a little antigen/antibody binding"}]}, {"compound": "biopterin [BPT]", "values": [{"measurement": "binding to anti-NPT (specificity)", "setting": "anti-NPT; BPT at same concentration as NPT (2 and 20 ng/mL)", "result": "no antigen/antibody binding"}]}]}
